Laboratory results published in ChEMBL document CHEMBL1140614, “In silico and in vitro filters for the fast estimation of skin permeation and distribution of new chemical entities” (J Med Chem, 2007).

Legend:
[1] = system: Zone of skin; settings: human
[2] = PAMPA, 7 h
[3] = physchem; settings: octanol/water
[4] = octanol/water

Row | Compound | log Kp [1] | logP [3] | also measured
1 | Oc1ccccc1 [PHENOL] | -5.64 | – | log Pe [2]: -4.14
2 | c1ccncc1 [PYRIDINE] | – | – | log Pe [2]: -4.35
3 | Oc1ccc2ccccc2c1 [BETANAPHTHOL] | -5.11 | – | log Pe [2]: -4.19
4 | CC(C(=O)O)c1ccc(-c2ccccc2)c(F)c1 (centres undefined) [FLURBIPROFEN] | – | 3.99 | –
5 | Nc1ccc(S(=O)(=O)Nc2ncccn2)cc1 [SULFADIAZINE] | – | -0.12 | log Pe [2]: -6.2
6 | C[C@]12CCC(=O)C=C1CC[C@@H]1[C@@H]2CC[C@@]2(C)[C@H]1CC[C@@]21CCC(=O)O1 [SPRIOLACTONE] | – | 2.26 | –
7 | O=C(O)c1ccccc1 [BENZOIC ACID] | -5.08 | – | –
8 | Cc1ccccc1O [ORTHOCRESOL] | -5.36 | 1.94 | –
9 | COC(=O)c1cccnc1 [METHYL NICOTINATE] | -6.04 | 0.87 | –
10 | Cc1ccc(C(C)C)c(O)c1 [THYMOL] | -4.83 | – | –
11 | COc1ccc2c(c1)c(CC(=O)O)c(C)n2C(=O)c1ccc(Cl)cc1 [INDOMETHACIN] | -5.39 | – | logP [4]: 4.27
12 | C/C=C(/C(=C/C)c1ccc(O)cc1)c1ccc(O)cc1 [DIENESTROL] | – | 4.5 | –
13 | CN1C(C(=O)Nc2ccccn2)=C(O)c2ccccc2S1(=O)=O [PIROXICAM] | -6.02 | – | –
14 | Cn1c(=O)c2c(ncn2C)n(C)c1=O [CAFFEINE] | -7.56 | – | log Pe [2]: -5.63
15 | CN[C@@H](C)[C@H](O)c1ccccc1 [EPHEDRINE] | -5.75 | – | –
16 | CCc1ccc(O)cc1 | -5.01 | 2.47 | –
17 | O=C(OCc1ccccc1)c1cccnc1 [BENZYL NICOTINATE] | -5.35 | – | –

Row | Compound | log Kp [1] | logP [3] | also measured
18 | CC(C)NCC(O)COc1cccc2ccccc12 (centres undefined) [PROPRANOLOL] | – | – | log Pe [2]: -4.25
19 | CCNc1nc(Cl)nc(NC(C)C)n1 [ATRAZINE] | -5.56 | – | –
20 | Cc1cc(=O)n(-c2ccccc2)n1C [ANTIPYRINE] | -7.74 | – | –
21 | O=C(O)Cc1ccccc1Nc1c(Cl)cccc1Cl [DICLOFENAC] | -5.3 | – | –
22 | CN1CCC[C@H]1c1cccnc1 [NICOTINE] | -5.26 | – | log Pe [2]: -4.58
23 | CC(C(=O)O)c1cccc(C(=O)c2ccccc2)c1 (centres undefined) [KETOPROFEN] | -4.7 | – | –
24 | Nc1ccc(S(=O)(=O)NC(=O)c2ccccc2)cc1 [SULFABENZAMIDE] | – | 1.46 | –
25 | O=C(O)c1ccccc1O [SALYCILIC ACID] | – | – | log Pe [2]: -4.16
26 | c1ccc2cnccc2c1 [ISOQUINOLINE] | -5.33 | – | –
27 | Oc1ccc(Cl)cc1 [PARACHLOROPHENOL] | -5 | – | –
28 | Nc1cc([N+](=O)[O-])ccc1O [2-AMINO-4-NITROPHENOL] | -6.62 | – | –
29 | O=C(O)CCCCc1ccccc1 [5-PHENYLVALERIC ACID] | – | 2.85 | –
30 | O=[N+]([O-])c1ccc(O)cc1 [P-NITROPHENOL] | -5.81 | – | –
31 | C[C@H]1C[C@H]2[C@@H]3CCC4=CC(=O)C=C[C@]4(C)[C@@]3(F)[C@@H](O)C[C@]2(C)[C@@]1(O)C(=O)CO [BETAMETHASONE] | – | 2.01 | –
32 | NC(=O)NS(=O)(=O)c1ccc(N)cc1 [SULFACARBAMIDE] | – | -1.1 | –
33 | CCC1(c2ccccc2)C(=O)NC(=O)NC1=O [PHENOBARBITAL] | -6.9 | – | –
34 | CC(=O)[C@H]1CC[C@H]2[C@@H]3CCC4=CC(=O)CC[C@]4(C)[C@H]3CC[C@]12C [PROGESTERONE] | -5.08 | – | log Pe [2]: -4.56
